# PubChem BioAssay (NCI)
# Where “and” joins values, the source holds several entries; their conditions need not be identical. Identical values can stand only once.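 Interpolation was linear, between the two tested concentrations surrounding the appropriate level; five concentrations were tested over 48 hours in 96-well plates. The concentration for 50% growth inhibition is given as GI50. TGI denotes the concentration required for complete inhibition of growth.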
# Tests used:
# Test in all cases: NCI-60 cell line screen, 48 h
# [1] = tested on: ACHN renal
# [2] = tested on: COLO 205 colon
# [3] = tested on: HCT-15 colon
# [4] = tested on: K-562 leukemia
# [5] = tested on: MOLT-4 leukemia
# [6] = tested on: SF-539 CNS
# [7] = tested on: SK-MEL-5 melanoma
# [8] = tested on: SNB-19 CNS
# [9] = tested on: SF-295 CNS
# [10] = tested on: MDA-MB-435
SMILES,TGI [1],TGI [2] [µM],TGI [3],TGI [4],TGI [5],TGI [6],TGI [7],TGI [8],TGI [9],GI50 [1] [µM],GI50 [2] [µM],GI50 [3] [µM],GI50 [4] [µM],GI50 [5] [µM],GI50 [9] [µM],GI50 [6] [µM],GI50 [7] [µM],GI50 [8] [µM],GI50 [10] [µM],TGI [10] [µM]
Cc1ccc(S(=O)(=O)OC[C@@H]2CO2)cc1,> 100 µM,> 100,> 100 µM,> 100 µM,> 100 µM,> 100 µM,> 100 µM,> 100 µM,,,,,,,,,,,,
NC1=NCCC1(c1ccccc1)c1ccccn1 (stereo unspecified),> 100 µM,> 100,> 100 µM,> 100 µM,> 100 µM,> 100 µM,> 100 µM,> 100 µM,> 100 µM,,,,,,,,,,,
COC(=O)c1ccccc1NC(=O)C(=O)Cc1nc2c3c(ccc2[nH]c1=O)C(=O)c1ccccc1C3=O,> 100 µM,> 100,> 100 µM,> 100 µM,99.6 µM,> 100 µM,13.6 µM,> 100 µM,,,,,,,,,,,,
COc1cc2ccnc([C@@H](OC(=O)c3ccccc3)c3ccc(OC)c(OC)c3OC)c2cc1OC,> 100 µM,> 100,> 100 µM,> 100 µM,> 100 µM,> 100 µM,56.6 µM,> 100 µM,> 100 µM,,,,,,,,,,,
O=C(CCc1nc(=S)[nH][nH]1)Nc1ccc(Cl)c(Cl)c1,> 100 µM,> 100,65.6 µM,> 100 µM,> 100 µM,> 100 µM,55.9 µM,> 100 µM,> 100 µM,,,,,,,,,,,
Cc1nc2c(ccc3ncccc32)[nH]1,> 100 µM,> 100,> 100 µM,> 100 µM,> 100 µM,> 100 µM,> 100 µM,> 100 µM,> 100 µM,,,,,,,,,,,
Cc1c(C(=O)C/C(=N/NC(=O)c2ccccc2O)C(=O)Nc2ccccc2C(C)C)[n+](=O)c2ccccc2n1[O-],> 100 µM,> 100,> 100 µM,> 100 µM,21.9 µM,> 100 µM,> 100 µM,> 100 µM,> 100 µM,,,,,,,,,,,
CCCCCCCCCCCC(=O)OCCOCCOCCOCCOCCOCc1ccccc1,> 100 µM,> 100,> 100 µM,> 100 µM,> 100 µM,,> 100 µM,> 100 µM,> 100 µM,,,,,,,,,,,
CC1(C)C(=O)/C=C\C(=O)C(C)(C)C2=CC=C(O2)C(C)(C)C(=O)/C=C\C(=O)C(C)(C)C2=CC=C1O2,> 100 µM,> 100,> 100 µM,> 100 µM,> 100 µM,,,> 100 µM,> 100 µM,,,,,,,,,,,
CCOC(=O)C(C)(C)Oc1ccc2c(-c3ccccc3)cc(=O)oc2c1,> 100 µM,42.7,> 100 µM,> 100 µM,54.6 µM,86.5 µM,26.9 µM,> 100 µM,> 100 µM,,,,,,,,,,,
CCOC(=O)CCC1(C(=O)OCC)CCCCC1=O (stereo unspecified),> 100 µM,> 100,,> 100 µM,> 100 µM,> 100 µM,> 100 µM,> 100 µM,> 100 µM,,,,,,,,,,,
CCCC1C(=O)CCc2c(OC)ccc(OC)c21 (stereo unspecified),> 100 µM,> 100,> 100 µM,> 100 µM,> 100 µM,> 100 µM,> 100 µM,> 100 µM,> 100 µM,,,,,,,,,,,
Cc1ccc(NC(=O)Nc2ccc(-c3cccnc3)cc2N2CCC(CO)CC2)cc1,> 100 µM,11.1,> 100 µM,> 100 µM,> 100 µM,4.67 µM,3.27 µM,> 100 µM,> 100 µM,6.68,2.85,2.77,2.19,3.02,2.53,1.68,1.68,2.64,,
CC1CCc2nc[nH]c(=O)c21 (stereo unspecified),> 100 µM,> 100,> 100 µM,> 100 µM,> 100 µM,> 100 µM,> 100 µM,> 100 µM,,> 100,> 100,> 100,> 100,> 100,,> 100,> 100,> 100,> 100,> 100
CN(C)N=Nc1ccc(C(N)=O)cc1,> 100 µM,> 100,> 100 µM,> 100 µM,> 100 µM,> 100 µM,> 100 µM,> 100 µM,> 100 µM,,,,,,,,,,,
CN(C)C(=S)N=C(Nc1ccccc1)Nc1ccccc1,> 100 µM,> 100,> 100 µM,> 100 µM,> 100 µM,> 100 µM,> 100 µM,> 100 µM,> 100 µM,,,,,,,,,,,
OCC1=CC(NC2CC(CO)C(O)C(O)C2O)C(O)C(O)C1O (stereo unspecified),> 100 µM,> 100,> 100 µM,> 100 µM,> 100 µM,> 100 µM,,> 100 µM,> 100 µM,,,,,,,,,,,
COc1cc2cc(OC)c3cc4c(cc3c2c(OC)c1OC)OCO4,> 100 µM,44.4,> 51.1 µM,48 µM,> 85.8 µM,> 55.4 µM,> 57.2 µM,> 100 µM,> 76 µM,,,,,,,,,,,
C1=C2/CC[C@H](Sc3ccccc3)C2C2(CCCCC/1)OCCO2 (stereo partly specified),85.9 µM,37.8,,> 100 µM,> 100 µM,> 100 µM,,> 100 µM,> 100 µM,,,,,,,,,,,
CCN(CC)CCSc1c2ccccc2nc2cc(NCC(=O)Nc3ccccc3-c3ccccc3NC(=O)CNc3ccc4c(SCCN(CC)CC)c5ccccc5nc4c3)ccc12,> 100 µM,> 55.3,> 100 µM,> 73.5 µM,> 76.9 µM,> 100 µM,> 100 µM,> 100 µM,> 100 µM,,,,,,,,,,,

SMILES,TGI [1],TGI [2] [µM],TGI [3],TGI [4],TGI [5],TGI [6],TGI [7],TGI [8],TGI [9],GI50 [1] [µM],GI50 [2] [µM],GI50 [3] [µM],GI50 [4] [µM],GI50 [5] [µM],GI50 [9] [µM],GI50 [6] [µM],GI50 [7] [µM],GI50 [8] [µM],GI50 [10] [µM],TGI [10] [µM]
C[N+](C)(C)CC(=O)N/N=C(/CC(=O)CC(C1=C(O)c2ccccc2OC1)c1ccccc1)C(=O)Nc1cccc(Cl)c1 (stereo unspecified),> 100 µM,> 100,> 100 µM,> 100 µM,> 100 µM,> 100 µM,> 100 µM,,> 100 µM,,,,,,,,,,,
O=C(O)CCC(NC(=O)c1ccc(Nc2nc3ccccc3nc2-c2cccs2)cc1)C(=O)O (stereo unspecified),> 100 µM,,> 100 µM,> 100 µM,> 100 µM,> 100 µM,> 100 µM,> 100 µM,> 100 µM,,,,,,,,,,,
CC(=O)[CH-]C(=O)c1ccccc1.CC(=O)[CH-]C(=O)c1ccccc1.CN(C)c1ccc([O-])cc1.CN(C)c1ccc([O-])cc1.Cl.[Ti+4],> 31.6 µM,22.5,> 31.6 µM,> 31.6 µM,,> 31.6 µM,> 88 µM,> 31.6 µM,> 100 µM,16.9,14.9,25.5,9.89,,46.3,19,40,22,,
COC1/C=C/OC2(C)Oc3c(C)c(O)c4c(O)c(c(/C=N/Nc5ccc([N+](=O)[O-])cc5[N+](=O)[O-])c(O)c4c3C2=O)NC(=O)C(C)=C/C=C/C(C)C(O)C(C)C(O)C(C)C(OC(C)=O)C1C (stereo unspecified),11.4 µM,10.5,31.1 µM,,,19.4 µM,3.75 µM,18.1 µM,20.1 µM,3.56,2.8,5.86,,,5.64,1.9,1.29,3.92,1.28,3.72
O=C(Nc1nc2ccc([N+](=O)[O-])cc2s1)C(=O)C(C1OC(=O)c2ccccc21)[N+](=O)[O-] (stereo unspecified),> 100 µM,> 100,> 100 µM,> 100 µM,> 100 µM,> 100 µM,> 100 µM,> 100 µM,> 100 µM,,,,,,,,,,,
Nc1ccccc1S(=O)(=O)N(CC(=O)O)c1ccccc1,> 100 µM,> 100,> 100 µM,> 100 µM,> 100 µM,> 100 µM,> 100 µM,> 100 µM,,,,,,,,,,,,
C=CCO[C@H]1CO[C@H]2[C@@H]1OC[C@@H]2Oc1ccc(Nc2ccnc(Nc3ccc(O[C@H]4CO[C@H]5[C@@H]4OC[C@@H]5OCC=C)c(Cl)c3)n2)cc1Cl,3.31 µM,4.06,3.06 µM,1.9 µM,,3.25 µM,2.8 µM,3.73 µM,3.49 µM,1.77,1.6,1.48,0.378,,1.85,1.83,1.46,2,1.67,3.06
CCCCCCCCCCCCCC(=O)OC(/C=C/C(C)C)C(O)C(O)C(OC)C(=O)NC1CCCCN(C)C1=O (stereo unspecified),5.14 µM and > 49 µM,,7.55 µM and > 49 µM,13.4 µM and > 49 µM,7.54 µM and > 49 µM,7.18 µM and > 49 µM,5.92 µM and > 49 µM,6.46 µM and > 49 µM,5.97 µM and > 49 µM,,,,> 49,,,,,> 49,,
CCC[CH2][Sn]([CH2]CCC)([S]c1cccc2cccnc12)[S]c1cccc2cccnc12,0.396 µM,0.224,0.411 µM,0.611 µM,0.397 µM,0.617 µM,0.534 µM,1.39 µM,1.39 µM,0.193,0.0592,0.176,0.0642,0.109,0.404,0.234,0.201,0.373,,
O=C(O)CCNCCCNCCC(=O)O,> 100 µM,> 100,> 100 µM,> 100 µM,> 100 µM,> 100 µM,> 100 µM,> 100 µM,> 100 µM,,,,,,,,,,,
Cc1c(C(=O)CC(=O)C(=O)Nc2ccccc2C(F)(F)F)[n+](=O)c2ccccc2n1[O-],> 100 µM,32.2,44.4 µM,93.2 µM,,46.2 µM,30.4 µM,> 100 µM,> 100 µM,,,,,,,,,,,
CO/C(=N\N=C\c1ccc(C(F)(F)F)cc1)c1ccncc1,> 10 µM,> 10,> 10 µM,> 10 µM,> 10 µM,,,> 10 µM,> 10 µM,,,,,,,,,,,> 10
Cc1ccnc2c1ccc1c(C)ccnc12,10.5 µM,13,10.4 µM,25.9 µM,,5.06 µM,11.8 µM,13.9 µM,11.7 µM,0.357,0.568,0.383,0.395,,0.371,0.316,0.303,0.592,0.481,13.1
COc1ccc2c(c1)sc1nc(-c3ccccc3)c(-c3cccc4ccccc34)n12,> 100 µM,0.855,> 38.4 µM,> 100 µM,> 100 µM,,0.856 µM,> 100 µM,,0.76,0.292,0.47,0.328,0.774,0.415,0.385,0.233,0.589,,
CCN(CC)N=Nc1c(C(N)=O)n[nH]c1C,> 100 µM,> 100,> 100 µM,,,> 100 µM,> 100 µM,> 100 µM,> 100 µM,,,,,,,,,,,> 100
COc1ccccc1N1C(=O)C2c3[nH]c4ccccc4c3C3CCC(C(C)(C)C)CC3C2C1=O (stereo unspecified),> 100 µM,> 100,> 100 µM,> 100 µM,> 100 µM,> 100 µM,> 100 µM,> 100 µM,> 100 µM,,,,,,,,,,,
CNC(=S)OCCC(C)CCCC(C)C (stereo unspecified),32.8 µM,,27.9 µM,30.9 µM,27.1 µM,30.6 µM,31.6 µM,33.4 µM,36 µM,,,,,,,,,,,
CC1(C(=O)O)CCC[C@@]2(C)C1CC[C@@]1(C)c3cocc3CCC21 (stereo partly specified),> 100 µM,> 100,> 100 µM,> 100 µM,> 100 µM,> 100 µM,> 100 µM,> 100 µM,> 100 µM,,,,,,,,,,,
Cc1cc(N(CCC#N)CCC#N)ccc1N=Nc1ccc(S(N)(=O)=O)cc1,> 100 µM,> 100,> 100 µM,> 100 µM,> 100 µM,> 100 µM,> 100 µM,> 100 µM,> 100 µM,,,,,,,,,,,
Cc1ccc(Cl)c2c(N=Nc3ccccc3[N+](=O)[O-])c(O)[nH]c12,> 100 µM,> 100,> 100 µM,> 100 µM,> 100 µM,48.6 µM,,> 100 µM,> 100 µM,,,,,,,,,,,35.3
